Test results reported in patent US10954269B2, “Anti-inflammatory tripeptides” (Dr. August Wolff Gmbh & Co. KG Arzneimittel, priority 2013, dated 2021).

How the values were obtained:
[1] = tested on: human keratinocyte cell line (HaCaT); assay: Cytokine secretion on protein level in activated human keratinocyte cell line HaCaT (13-plex FACS / Luminex, supernatant); assay type: cell-based; conditions: for IL-1 cytokine concentration / IL-2 cytokine concentration / IL-4 cytokine concentration / IL-5 cytokine concentration / IL-6 cytokine concentration / IL-9 cytokine concentration / IL-10 cytokine concentration / IL-12p70 cytokine concentration / IL-13 cytokine concentration / IL-17 cytokine concentration / IL-22 cytokine concentration / TNF-α cytokine concentration / IFN-γ cytokine concentration: substance 10^−9M
Summary of the method: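 Primary T-cells from peripheral blood of healthy volunteers, or HaCaT cells, were activated with PMA/Ionomycin or IFN-γ for 48 h and treated with tripeptides. Supernatants were collected 48 h and 72 h after stimulation and cytokines (IL-1, IL-2, IL-6, IL-12p70, IL-17, IFN-γ, TNF-α) were measured by 13-plex FACS.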

[2] = tested on: primary murine T-cells; assay: Cytokine secretion on protein level in activated primary murine T-cells (13-plex FACS / Luminex, supernatant); assay type: cell-based, C57BL/6 mice
Summary of the method: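 T-cells from secondary lymphatic organs of naïve C57BL/6 mice, stimulated with PMA/Ionomycin or IFN-γ; supernatant cytokines measured by 13-plex FACS 48 h and 72 h after stimulation. In another run, PMA/Ionomycin-stimulated cells received compounds at 10^−7, 10^−9 and 10^−11 M, with IFN-γ, IL-17 and IL-10 measured by Luminex.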

[3] = HaCaT stimulated with PMA/Ionomycin
[4] = primary murine T-cells stimulated with IFN-γ, substance 10^−9M
[5] = primary murine T-cells stimulated with PBS, substance 10^−9M

Substance H-(L)-Nle-(L)-Pro-Aib-OH [Example 12] has an IL-1 cytokine concentration ([1]; HaCaT stimulated with IFN-γ) of 9.31 pg/mL, an IL-2 cytokine concentration ([1]; HaCaT stimulated with IFN-γ) of 0 pg/mL and an IL-4 cytokine concentration ([1]; HaCaT stimulated with IFN-γ) of 69.91 pg/mL. For the same substance, the IL-5 cytokine concentration ([1]; HaCaT stimulated with IFN-γ) was 0 pg/mL, the IL-6 cytokine concentration ([1]; HaCaT stimulated with IFN-γ) was 297.09 pg/mL and the IL-9 cytokine concentration ([1]; HaCaT stimulated with IFN-γ) was 0 pg/mL. The IL-10 cytokine concentration ([1]; HaCaT stimulated with IFN-γ) was 0 pg/mL, the IL-12p70 cytokine concentration ([1]; HaCaT stimulated with IFN-γ) was 0 pg/mL and the IL-13 cytokine concentration ([1]; HaCaT stimulated with IFN-γ) was 195.68 pg/mL. It also gave an IL-17 cytokine concentration ([1]; HaCaT stimulated with IFN-γ) of 56.13 pg/mL, an IL-22 cytokine concentration ([1]; HaCaT stimulated with IFN-γ) of 0 pg/mL and a TNF-α cytokine concentration ([1]; HaCaT stimulated with IFN-γ) of 0 pg/mL. The IFN-γ cytokine concentration ([1]; HaCaT stimulated with PBS) was 0 pg/mL, the IL-1 cytokine concentration ([1]; HaCaT stimulated with PBS) was 0 pg/mL and the IL-2 cytokine concentration ([1]; HaCaT stimulated with PBS) was 0 pg/mL. The IL-4 cytokine concentration ([1]; HaCaT stimulated with PBS) was 0 pg/mL, the IL-5 cytokine concentration ([1]; HaCaT stimulated with PBS) was 0 pg/mL and the IL-6 cytokine concentration ([1]; HaCaT stimulated with PBS) was 56.87 pg/mL. It also gave an IL-9 cytokine concentration ([1]; HaCaT stimulated with PBS) of 4.96 pg/mL, an IL-10 cytokine concentration ([1]; HaCaT stimulated with PBS) of 69.45 pg/mL and an IL-12p70 cytokine concentration ([1]; HaCaT stimulated with PBS) of 0 pg/mL. It also gave an IL-13 cytokine concentration ([1]; HaCaT stimulated with PBS) of 193.75 pg/mL, an IL-17 cytokine concentration ([1]; HaCaT stimulated with PBS) of 0 pg/mL and an IL-22 cytokine concentration ([1]; HaCaT stimulated with PBS) of 0 pg/mL. The TNF-α cytokine concentration ([1]; HaCaT stimulated with PBS) was 5.55 pg/mL, the IFN-γ cytokine concentration [1, 3] was 22.77 pg/mL and the IL-1 cytokine concentration [1, 3] was 0 pg/mL. It also gave an IL-2 cytokine concentration [1, 3] of 0 pg/mL, an IL-4 cytokine concentration [1, 3] of 0 pg/mL and an IL-5 cytokine concentration [1, 3] of 0 pg/mL. The IL-6 cytokine concentration [1, 3] was 158.4 pg/mL, the IL-9 cytokine concentration [1, 3] was 0 pg/mL and the IL-10 cytokine concentration [1, 3] was 86.04 pg/mL. It also gave an IL-12p70 cytokine concentration [1, 3] of 0 pg/mL, an IL-13 cytokine concentration [1, 3] of 0 pg/mL and an IL-17 cytokine concentration [1, 3] of 25.98 pg/mL. The IL-22 cytokine concentration [1, 3] was 0 pg/mL, the TNF-α cytokine concentration [1, 3] was 0 pg/mL and the “secretion / expression of pro-inflammatory cytokines (supernatant)” value ([1]; activated human keratinocytes) was “able to reduce”. The “secretion / expression of pro-inflammatory cytokines (supernatant)” value ([2]; activated primary murine T-cells) was “able to reduce”, the IL-1 cytokine concentration [2, 4] was 86.08 pg/mL and the IL-2 cytokine concentration [2, 4] was 88.9 pg/mL. It also gave an IL-4 cytokine concentration [2, 4] of 34.22 pg/mL, an IL-5 cytokine concentration [2, 4] of 221.57 pg/mL and an IL-6 cytokine concentration [2, 4] of 110.7 pg/mL. For the same substance, the IL-10 cytokine concentration [2, 4] was 1130.01 pg/mL, the IL-13 cytokine concentration [2, 4] was 0 pg/mL and the IL-17 cytokine concentration [2, 4] was 72.21 pg/mL. It also gave an IL-21 cytokine concentration [2, 4] of 40.2 pg/mL, an IL-22 cytokine concentration [2, 4] of 42.98 pg/mL and an IL-27 cytokine concentration [2, 4] of 12.5 pg/mL. The TNF-α cytokine concentration [2, 4] was 31.88 pg/mL, the IFN-γ cytokine concentration [2, 5] was 0 pg/mL and the IL-1 cytokine concentration [2, 5] was 61.52 pg/mL. The IL-2 cytokine concentration [2, 5] was 189.72 pg/mL, the IL-4 cytokine concentration [2, 5] was 32.24 pg/mL and the IL-5 cytokine concentration [2, 5] was 331.87 pg/mL. For the same substance, the IL-6 cytokine concentration [2, 5] was 223.98 pg/mL and the IL-10 cytokine concentration [2, 5] was 872.36 pg/mL.
